Measured values: US20030086923A1, “Method for the prevention and/or treatment of atherosclerosis” (priority 1999, published 2003)
pIC50, pKi: −log10 of the molar value.

Key:
[1] = tested on: cholesterol-loaded THP-1 macrophages; assay: Stimulation of cholesterol efflux from cholesterol-loaded THP-1 macrophages; format: cell-based, human; conditions: 1 μM, 24 hours, mean±SEM
Source text: Stimulation of Cholesterol Efflux from Cholesterol-Loaded Cells
To determine if LXR agonists could increase cholesterol efflux in cells that were loaded with excess cholesterol, THP-1 cells were loaded with cholesterol using acetylated LDL prior to the assay of cholesterol efflux Specifically, cultured human THP-1 cells were stimulated to differentiate into macrophages as described above. After differentiation, the THP-1 macrophages were loaded with cholesterol and simultaneously labeled with ^3H-cholesterol using acetylated LDL containing ^3H-cholesterol essentially as described by Kritharides et al. (1998) Arterioscler Thromb Vasc Biol. 18:1589-1599. After 24 hours of incubation with 100 μg/ml of acetylated LDL labelled with ^3H-cholesterol, the cells were incubated in Complete RPMI medium containing 0.1% lipid-free BSA for 24 hours to allow for equilibration of cellular cholesterol pools. Cholesterol efflux was then measured over the following 24 hours by incubating the cells in Complete RPMI medium with either apoA-I or HDL as cholesterol acceptor, and with either 1 μM Compound 1 or DMSO as control.

human PPARγ = target: T1, human PPARγ (Homo sapiens, UniProt P37231); assay: PPARγ competition binding assay
T1 sequence (P37231 1-505): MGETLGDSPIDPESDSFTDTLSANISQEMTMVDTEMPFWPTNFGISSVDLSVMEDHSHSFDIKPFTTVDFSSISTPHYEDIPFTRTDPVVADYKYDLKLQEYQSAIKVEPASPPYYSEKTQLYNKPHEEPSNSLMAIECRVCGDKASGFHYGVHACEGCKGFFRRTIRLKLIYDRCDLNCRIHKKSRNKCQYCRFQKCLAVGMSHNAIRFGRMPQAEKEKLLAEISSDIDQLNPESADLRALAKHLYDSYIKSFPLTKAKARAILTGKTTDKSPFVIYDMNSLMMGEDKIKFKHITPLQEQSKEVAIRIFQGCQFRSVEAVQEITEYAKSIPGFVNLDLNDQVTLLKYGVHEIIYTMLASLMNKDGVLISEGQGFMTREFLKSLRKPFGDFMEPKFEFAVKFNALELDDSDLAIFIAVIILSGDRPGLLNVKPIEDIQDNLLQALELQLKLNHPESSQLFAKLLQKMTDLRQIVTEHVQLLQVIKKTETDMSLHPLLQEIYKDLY
Source text: The term ligand throughout this application should be understood to include an agonist, partial agonist or antagonist of LXR. The ligand may be selective for LXRα or LXRβ, or it may have mixed binding affinity for both LXRα and LXRβ. Particularly, compounds within the scope of this invention include those which have greater selectivity as determined by binding affinity for LXRα and/or LXRβ receptors than they have for each of the PPARα, γ and δ receptors.

[2] = target: T2, human GST-LXRβ ligand binding domain receptor (Homo sapiens, UniProt P55055); assay: Radioligand competition binding scintillation proximity assay, LXRβ
T2 construct: human LXRβ (amino acids 149-455) were subcloned into the pGEX-KT expression vector; made in house; host or cells: E. coli (pGEX-KT vector)
T2 sequence (P55055 149-455): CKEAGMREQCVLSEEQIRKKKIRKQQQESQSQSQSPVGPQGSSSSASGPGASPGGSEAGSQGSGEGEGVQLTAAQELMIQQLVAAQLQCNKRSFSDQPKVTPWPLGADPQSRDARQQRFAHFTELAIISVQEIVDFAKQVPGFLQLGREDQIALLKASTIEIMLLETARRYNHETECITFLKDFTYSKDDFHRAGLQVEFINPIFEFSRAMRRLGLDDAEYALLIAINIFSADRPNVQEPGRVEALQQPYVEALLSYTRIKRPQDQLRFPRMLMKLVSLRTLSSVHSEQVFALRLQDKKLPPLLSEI
Source text: (§1) Radioligand Competition Binding Scintillation Proximity Assays:
(§2) Preparation of Recombinant Human LXRα and LXRβ:
(§3) Human LXRα and LXRβ were expressed as GST-fusion proteins in E. coli. The ligand binding domain cDNAs for human LXRα (amino acids 164-447) and human LXRβ (amino acids 149-455) were subcloned into the pGEX-KT expression vector (Pharmacia). E. coli containing the respective plasmids were propagated, induced, and harvested by centrifugation. The resuspended pellet was broken in a French press and debris was removed by centrifugation. Recombinant human LXR receptors were purified by affinity chromatography on glutathione sepharose and receptor was eluted with glutathione. Glycerol was added to a final concentration of 50% to stabilize the receptor and aliquots were stored at −80° C.
(§4) After incubation for ˜16 h at 15° C. with shaking, the assay plates were counted in a Packard Topcount.

human GST-LXRα receptor = target: T3, human GST-LXRα receptor (Homo sapiens, UniProt Q13133); assay: Radioligand competition binding scintillation proximity assay, LXRα
T3 construct: made in house; host or cells: E. coli (pGEX-KT vector)
T3 sequence (Q13133 164-447): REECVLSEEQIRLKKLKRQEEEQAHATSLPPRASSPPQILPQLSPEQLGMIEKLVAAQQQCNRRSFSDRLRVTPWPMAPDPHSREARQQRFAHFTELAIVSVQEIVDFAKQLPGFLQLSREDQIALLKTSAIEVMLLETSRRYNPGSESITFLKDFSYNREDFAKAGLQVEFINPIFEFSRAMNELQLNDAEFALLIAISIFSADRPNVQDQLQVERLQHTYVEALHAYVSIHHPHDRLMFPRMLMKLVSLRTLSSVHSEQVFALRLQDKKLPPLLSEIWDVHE
Source text: as §1, §2, §3, §4

THP-1 macrophages = assay: Stimulation of cholesterol efflux from cultured THP-1 macrophages; format: cell-based, human; conditions: 24 hours, 10 μg/ml apoA-I acceptor, mean±SEM, DMSO control 9.9 ± 0.5
Source text: Stimulation of Cholesterol Efflux from Cultured Cells
Patients with Tangier disease have mutations in the ABC1 gene and have very low HDL levels. Cultured cells from these patients are defective in cholesterol efflux (Francis et al. (1995) J. Clin. Invest. 96:78-87). Therefore, induction of ABC1 mRNA should lead to increased cholesterol efflux and increased HDL levels (Francis et al. (1999) Clinica Chimica Acta 286:219-230). TIIP-1 cells were used to determine whether induction of ABC1 mRNA by Compound 1 would increase cholesterol efflux. Specifically, cultured human THP-1 cells were stimulated to differentiate into macrophages by incubation with 100 nM tetradecanoyl phorbol acetate for three days, as described above. After differentiation, the TUP-1 macrophages were labeled with ^3H-cholesterol by incubation for 24 hours with 10 μCi/ml ^3H-cholesterol in Complete RPMI media containing 0.1% lipid-free bovine serum albumin (BSA) plus 100 nM tetradecanoyl phorbol acetate. After labeling, the cells were incubated for 24 hours in Complete RPMI media with 0.1% lipid-free bovine serum albumin (BSA) to allow for equilibration of cellular cholesterol pools. Cholesterol efflux was then measured over the following 24 hours by incubating the cells in Complete RPMI media containing 10 μg/ml of apoA-I as cholesterol acceptor, and either Compound 1 or DMSO as control.

SMILES: CC(=O)Oc1ccc2c(c1)[C@@]1(C)CCC[C@](C)(C(=O)OC(=O)[C@@]3(C)CCC[C@]4(C)c5cc(OC(C)=O)ccc5CC[C@@H]34)[C@@H]1CC2 [Compound 1]
- Cholesterol efflux (% of cell contents) ([1]; acceptor 10 μg/ml apoA-I, DMSO control 6.4 ± 0.3): 10.3 ± 0.4 % of cell contents
- Cholesterol efflux (% of cell contents) ([1]; acceptor 25 μg/ml HDL, DMSO control 14.9 ± 0.5): 18.6 ± 0.7 % of cell contents
- pIC50 (human PPARγ): < 5.00
- pIC50 [2]: 7.40
- pKi ([2]; read-out: LXRβ calculated Ki): ~7.85
- pIC50 (human GST-LXRα receptor): 7.10
- pKi (human GST-LXRα receptor; read-out: LXRα calculated Ki): ~7.52
- Cholesterol efflux (% of cell contents) (THP-1 macrophages; 0.02 μM): 14.6 ± 0.5 % of cell contents
- Cholesterol efflux (% of cell contents) (THP-1 macrophages; 2.5 μM): 17.1 ± 0.6 % of cell contents
